This note sets out measurements from ChEMBL document CHEMBL4483862, “Open-source discovery of chemical leads for next-generation chemoprotective antimalarials” (2018).

As usually defined, the IC50 is the concentration needed to halve the response being measured. As usually defined, the IC90 is the concentration needed for an effect of 90%.

For the assay, the system named is Plasmodium berghei. As to the kind of experiment: Luciferase/luciferin-expressing antifolate-resistant parasites were used to infect a culture of HepG2 cells that were pre-incubated with compounds. Infected hepatocytes emit light due to the luciferase reaction. Assay results are presented as the percent inhibition of light emission compared to control. […]. The assay is classed as functional. Conditions: sporozoite; for IC90: read-out: LUCIFERASE INFECTION ASSAY - IC90.

Setting [1] is: read-out: LUCIFERASE INFECTION ASSAY - IC50.

Consider `COc1ccc(NC(=O)c2cc(S(N)(=O)=O)ccc2Br)cc1Cc1ccccc1`, for which the IC90 was more than 10 µM. The IC50 under setting [1] was more than 10 µM.
For the molecule `COc1ccc(Cn2c(C)nc3oc4ccccc4c(=O)c3c2=O)cc1`, the IC90 was more than 9.47 µM. Besides, the IC50 (PBLUC_HILL_SLOPE 3.46, PBLUC_R_SQUARED 0.26, read-out: LUCIFERASE INFECTION ASSAY - IC50) was 6.48 µM.
In the case of `Cc1cc(C(=O)NNC(=O)c2c(C)nc3ccccn23)c2nc3n(c2n1)CCCCC3`, the IC90 amounted to 0.662 µM. Moreover, the IC50 (HEPG2TOX_HILL_SLOPE 1.28, HEPG2TOX_R_SQUARED 0.815, PBLUC_HILL_SLOPE 3.27, PBLUC_R_SQUARED 0.895, read-out: LUCIFERASE INFECTION ASSAY - IC50) is 0.338 µM.
For the molecule `CCCn1c(N)c(C(=O)CN(C)Cc2cccc(Cl)c2Cl)c(=O)[nH]c1=O`, the IC90 was 3.38 µM. Further, the IC50 (PBLUC_HILL_SLOPE 149, PBLUC_R_SQUARED 0.302, read-out: LUCIFERASE INFECTION ASSAY - IC50) was determined as 3.33 µM.
Consider `NC(Cc1ccc(F)cc1)c1csc(Nc2ccc(C(F)(F)F)cn2)n1` (configuration not stated), for which the IC90 turned out to be 5.98 µM. The IC50 (PBLUC_HILL_SLOPE 202, PBLUC_R_SQUARED 0.785, read-out: LUCIFERASE INFECTION ASSAY - IC50) came to 5.91 µM.
In the case of `COc1ccc(-n2c(SCc3nc4ccccc4s3)nc3ccccc32)cc1`, the IC90 was more than 10 µM. Besides, the IC50 under setting [1] was more than 10 µM.
For `COc1ccc(CNC(=O)c2ccc3c(c2)NC(=O)C(C)S3)cc1OC` (configuration not stated), the concentration for an effect of 90% (IC90) is more than 10 µM. In addition, the IC50 under setting [1] is more than 10 µM.
Turning to `Cc1ccccc1-c1cc2c(cn1)nc(NCc1ccccc1F)n2C`, the IC90 is 8.53 µM. Besides, the IC50 (HEPG2TOX_HILL_SLOPE 2.16, HEPG2TOX_R_SQUARED 0.829, PBLUC_HILL_SLOPE 2.78, PBLUC_R_SQUARED 0.577, read-out: LUCIFERASE INFECTION ASSAY - IC50) worked out at 3.87 µM.
Turning to `CC(OC(=O)c1ccccc1NS(=O)(=O)c1ccc2c(c1)OCCO2)C(=O)Nc1ccc([N+](=O)[O-])cc1C(F)(F)F` (configuration not stated), the IC90 is more than 10 µM. For the same molecule, the IC50 under setting [1] was more than 10 µM.
As to `N/C(=N\OC(=O)c1ccc2ncsc2c1)c1ccccc1`, the IC90 was determined as 9.73 µM. The IC50 (FFLUC_HILL_SLOPE 2.58, FFLUC_R_SQUARED 0.671, PBLUC_HILL_SLOPE 1.01, PBLUC_R_SQUARED 0.623, read-out: LUCIFERASE INFECTION ASSAY - IC50) was found to be 1.1 µM.
Turning to `Fc1cccc(Nc2cc3c(cn2)ncn3Cc2ccccc2)c1`, the IC90 was more than 10 µM. Moreover, the IC50 (HEPG2TOX_HILL_SLOPE 2.72, HEPG2TOX_R_SQUARED 0.764, PBLUC_HILL_SLOPE 2.07, PBLUC_R_SQUARED 0.581, read-out: LUCIFERASE INFECTION ASSAY - IC50) turned out to be 8.26 µM.
As for `O=[N+]([O-])c1ccc(Oc2ccc(F)cc2Br)c2ccncc12`, the IC90 is 9.13 µM. Besides, for the setting “HEPG2TOX_HILL_SLOPE 8.14, 7.27, HEPG2TOX_R_SQUARED 0.719, 0.841, PBLUC_HILL_SLOPE 4.57, PBLUC_R_SQUARED 0.39, read-out: LUCIFERASE INFECTION ASSAY - IC50”, the IC50 is 5.65 µM.
As to `O=[N+]([O-])c1ccc(C2Nc3ccc(F)cc3N2)s1` (configuration not stated), the IC90 was 6.65 µM. For the same molecule, under “PBLUC_HILL_SLOPE 4.41, PBLUC_R_SQUARED 0.496, read-out: LUCIFERASE INFECTION ASSAY - IC50”, the IC50 was found to be 4.04 µM.
Take `CSc1sc(-c2ccon2)c(-c2cccs2)c1C#N`: the IC90 is more than 10.8 µM. In addition, the IC50 under setting [1] is more than 10.8 µM.
On to `COC(=O)CCSc1c2ccc(Cl)cc2nc2ccc(OC)cc12`, for which the IC90 turned out to be 0.454 µM. Also, the IC50 (PBLUC_HILL_SLOPE 2.8, PBLUC_R_SQUARED 0.704, read-out: LUCIFERASE INFECTION ASSAY - IC50) was 0.207 µM.
Take `N#Cc1ccsc1NC(=O)COc1ccc([N+](=O)[O-])cc1Cl`: the 90% effect concentration (IC90) is more than 10 µM. Also, the IC50 (FFLUC_HILL_SLOPE 45.5, FFLUC_R_SQUARED 0.53, PBLUC_HILL_SLOPE 0.51, PBLUC_R_SQUARED 0.745, read-out: LUCIFERASE INFECTION ASSAY - IC50) came to 0.444 µM.
As to `OC1CCC(Nc2nn3cc(-c4ccccc4)nc3s2)CC1` (configuration not stated), the IC90 worked out at 0.247 µM. Also, the IC50 (FFLUC_HILL_SLOPE 1.59, FFLUC_R_SQUARED 0.907, PBLUC_HILL_SLOPE 0.891, PBLUC_R_SQUARED 0.938, read-out: LUCIFERASE INFECTION ASSAY - IC50) worked out at 0.0209 µM.
With `O=C1NC2=C(C(=O)N(CCC3=CCCCC3)C2)C(c2ccc(F)cc2)N1` (configuration not stated), the IC90 was more than 10 µM. The IC50 under setting [1] is more than 10 µM.
With `CCc1nnc(NC(=O)c2csc(Cc3ccccc3)n2)s1`, the IC90 is more than 10 µM. Also, under setting [1], the IC50 stood at 8.84 µM.
Regarding `COc1nc2c(c(-c3c(F)cccc3Cl)c1C#N)Cc1ccccc1-2`, the IC90 is more than 9.41 µM. For the same molecule, the IC50 (HEPG2TOX_HILL_SLOPE 6.94, HEPG2TOX_R_SQUARED 0.218, PBLUC_HILL_SLOPE 33.2, PBLUC_R_SQUARED 0.233, read-out: LUCIFERASE INFECTION ASSAY - IC50) turned out to be 9 µM.
On to `Cc1ccc(Nc2nc(C[N+]3(Cc4csc(Nc5ccc(C)cc5)n4)CCN(Cc4ccc(C#N)cc4)CC3)cs2)cc1`, for which the IC90 is more than 10 µM. Where the note is “HEPG2TOX_HILL_SLOPE 1.4, HEPG2TOX_R_SQUARED 0.751, PBLUC_HILL_SLOPE 1.26, PBLUC_R_SQUARED 0.51, read-out: LUCIFERASE INFECTION ASSAY - IC50”, the IC50 worked out at 1.97 µM.
`Cc1ccc(C(C)CCN2CCc3c(c(C(=O)NCc4nccs4)nn3Cc3ccccc3)C2)o1` (configuration not stated): the IC90 was more than 6.74 µM. For the same molecule, under setting [1], the IC50 was more than 6.74 µM.
`CC12CCC(CC1=NNc1nc3ccccc3o1)C2(C)C` (configuration not stated): the IC90 is more than 10 µM. Moreover, the IC50 (PBLUC_HILL_SLOPE 0.724, PBLUC_R_SQUARED 0.679, read-out: LUCIFERASE INFECTION ASSAY - IC50) is 4.33 µM.
For `CCc1c(C)sc2nc(SCC(=O)Nc3cc(C)on3)n(-c3ccc(O)cc3C)c(=O)c12`, the IC90 stood at 8.83 µM. Moreover, the IC50 under setting [1] amounted to 3.89 µM.
Regarding `COc1ccc2c(c1)C(=O)/C(=C\c1ccc(OCc3nccn3C)cc1)CO2`, the IC90 was more than 10 µM. Further, the IC50 (PBLUC_HILL_SLOPE 10.1, PBLUC_R_SQUARED 0.104, read-out: LUCIFERASE INFECTION ASSAY - IC50) is 8.44 µM.
Consider `COc1cc(NC(=O)N2CCc3nc(NCc4cccc(Oc5ccccc5)c4)ncc3C2)cc(OC)c1OC`, for which the IC90 was more than 6.09 µM. In addition, the IC50 (HEPG2TOX_HILL_SLOPE 6.86, HEPG2TOX_R_SQUARED 0.395, PBLUC_HILL_SLOPE 8.32, PBLUC_R_SQUARED 0.196, read-out: LUCIFERASE INFECTION ASSAY - IC50) was determined as 5.31 µM.
Regarding `Cc1nnnn1/C(=C\c1ccccc1)C(=O)N(Cc1cccs1)c1ccc2c(c1)OCCO2`, the IC90 was more than 10 µM. In addition, the half-inhibitory concentration (IC50) under setting [1] was more than 10 µM.
Turning to `c1ccc(-c2csc3ncnc(Sc4ccc5nnnn5n4)c23)cc1`, the IC90 was more than 10 µM. For the same molecule, where the note is “HEPG2TOX_HILL_SLOPE 2.04, HEPG2TOX_R_SQUARED 0.855, PBLUC_HILL_SLOPE 0.945, PBLUC_R_SQUARED 0.512, read-out: LUCIFERASE INFECTION ASSAY - IC50”, the IC50 is 7.55 µM.
For `O=c1c(-c2ccc(Cl)cc2)c[nH]n1-c1cccc(C(F)(F)F)c1`, the IC90 is more than 9.74 µM. Where the note is “FFLUC_HILL_SLOPE 17.4, FFLUC_R_SQUARED 0.432, HEPG2TOX_HILL_SLOPE 8.27, HEPG2TOX_R_SQUARED 0.828, PBLUC_HILL_SLOPE 3.62, PBLUC_R_SQUARED 0.841, read-out: LUCIFERASE INFECTION ASSAY - IC50”, the IC50 came to 5.59 µM.
For the molecule `O=C(Cc1csc(-c2ccccc2Cl)n1)Nc1cnc2ccccc2c1`, the IC90 is more than 10 µM. Besides, the IC50 (HEPG2TOX_HILL_SLOPE 0.041, HEPG2TOX_R_SQUARED 0.0816, read-out: LUCIFERASE INFECTION ASSAY - IC50) was more than 10 µM.
Take `CCCCCCOCC[N+](C)(CCOCCCCCC)CCOCCCCCC`: the IC90 was found to be 1.08 µM. Besides, the IC50 (FFLUC_HILL_SLOPE 13.1, FFLUC_R_SQUARED 0.46, HEPG2TOX_HILL_SLOPE 1.63, HEPG2TOX_R_SQUARED 0.995, PBLUC_HILL_SLOPE 15.2, PBLUC_R_SQUARED 0.558, read-out: LUCIFERASE INFECTION ASSAY - IC50) was determined as 0.933 µM.
Consider `O=S(=O)(Nc1cc(-c2ccc(Cl)cc2)nn1-c1ccc(I)cc1)c1cccc(F)c1`, for which the IC90 came to 2.83 µM. For the same molecule, the half-maximal inhibitory concentration (IC50) (HEPG2TOX_HILL_SLOPE 3.73, HEPG2TOX_R_SQUARED 0.889, PBLUC_HILL_SLOPE 8.27, PBLUC_R_SQUARED 0.455, read-out: LUCIFERASE INFECTION ASSAY - IC50) was 2.17 µM.
Regarding `Cc1cc(SCC(=O)NNC(=O)c2ccc(NS(=O)(=O)c3cccs3)cc2)nc2ccccc12`, the IC90 is more than 10 µM. The IC50 under setting [1] is more than 10 µM.
With `COc1ccc(C(C)(O)c2nc(-c3cccc(F)c3)cs2)cc1` (configuration not stated), the IC90 came to 5.23 µM. The IC50 under setting [1] worked out at 5.17 µM.
`CS(=O)(=O)c1ncc(Cl)c(C(=O)C(C#N)c2ccc3ccccc3n2)n1` (configuration not stated): the IC90 amounted to 4.88 µM. Moreover, the IC50 (HEPG2TOX_HILL_SLOPE 3.45, HEPG2TOX_R_SQUARED 0.508, PBLUC_HILL_SLOPE 8.67, PBLUC_R_SQUARED 0.634, read-out: LUCIFERASE INFECTION ASSAY - IC50) was 3.78 µM.
As to `COc1ccc(-c2cnc(N)c(-c3cccnc3)c2)cc1OC`, the IC90 was 9.72 µM. Also, for the setting “HEPG2TOX_HILL_SLOPE 1.35, HEPG2TOX_R_SQUARED 0.969, PBLUC_HILL_SLOPE 2.37, PBLUC_R_SQUARED 0.379, read-out: LUCIFERASE INFECTION ASSAY - IC50”, the IC50 worked out at 3.85 µM.
